Each molecule was assayed against urease (JBU; EC 3.5.1.5) (Canavalia ensiformis, UniProt P07374) (assay: In vitro urease inhibitory activity). Settings: not given.
Type: biochemical, Jack bean

Chain of urease (JBU; EC 3.5.1.5) (P07374 whole entry, looked up): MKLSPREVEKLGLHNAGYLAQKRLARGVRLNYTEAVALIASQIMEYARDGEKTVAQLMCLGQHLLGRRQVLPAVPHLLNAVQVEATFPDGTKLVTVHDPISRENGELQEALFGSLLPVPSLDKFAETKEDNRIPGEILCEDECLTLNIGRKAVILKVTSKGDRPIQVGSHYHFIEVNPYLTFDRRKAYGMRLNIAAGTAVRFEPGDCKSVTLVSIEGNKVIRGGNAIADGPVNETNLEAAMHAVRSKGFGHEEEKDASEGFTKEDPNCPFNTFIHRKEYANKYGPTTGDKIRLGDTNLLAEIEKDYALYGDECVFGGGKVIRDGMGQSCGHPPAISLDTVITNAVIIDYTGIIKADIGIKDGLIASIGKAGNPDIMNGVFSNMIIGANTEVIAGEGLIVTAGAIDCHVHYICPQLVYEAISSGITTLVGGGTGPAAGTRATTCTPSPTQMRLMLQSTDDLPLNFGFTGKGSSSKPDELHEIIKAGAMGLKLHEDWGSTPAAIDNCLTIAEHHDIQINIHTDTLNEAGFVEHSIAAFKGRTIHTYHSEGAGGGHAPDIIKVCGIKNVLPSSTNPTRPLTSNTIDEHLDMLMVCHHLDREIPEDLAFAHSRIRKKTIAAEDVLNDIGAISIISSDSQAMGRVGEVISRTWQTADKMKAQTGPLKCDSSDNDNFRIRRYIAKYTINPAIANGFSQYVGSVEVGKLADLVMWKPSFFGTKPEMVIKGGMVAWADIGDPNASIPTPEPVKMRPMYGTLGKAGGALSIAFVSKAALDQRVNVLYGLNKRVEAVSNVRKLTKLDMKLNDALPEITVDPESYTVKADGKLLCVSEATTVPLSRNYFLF

| Compound | IC50 [nM] |
| --- | --- |
| COc1cc(-c2nc3cc(C(=O)N4CCN(c5ccccc5)CC4)ccc3[nH]2)ccc1OCC(=O)Nc1cccc([N+](=O)[O-])c1 [Compound 9 L, 2-(2-Methoxy-4-(5-(4-phenylpiperazine-1-carbonyl)−1H-benzo[d]imidazol-2-yl)phenoxy)-N-(3-nitrophenyl)acetamide] | 150 ± 90 |
| COc1cc(-c2nc3cc(C(=O)N4CCN(c5ccccc5)CC4)ccc3[nH]2)ccc1OCC(=O)Nc1ccc([N+](=O)[O-])cc1 [Compound 9 m, 2-(2-Methoxy-4-(5-(4-phenylpiperazine-1-carbonyl)−1H-benzo[d]imidazol-2-yl)phenoxy)-N-(4-nitrophenyl)acetamide] | 350 ± 340 |
| COc1cc(-c2nc3cc(C(=O)N4CCN(c5ccccc5)CC4)ccc3[nH]2)ccc1OCC(=O)Nc1ccccc1F [Compound 9 h, N-(2-Fluorophenyl)−2-(2-methoxy-4-(5-(4-phenylpiperazine-1-carbonyl)−1H-benzo[d]imidazol-2-yl)phenoxy)acetamide] | 2400 ± 360 |

Second part, the molecule after the results:

| IC50 [nM] | Compound |
| --- | --- |
| 510 ± 100 | CCc1ccc(NC(=O)COc2ccc(-c3nc4cc(C(=O)N5CCN(c6ccccc6)CC5)ccc4[nH]3)cc2OC)cc1 [Compound 9f, N-(4-Ethylphenyl)−2-(2-methoxy-4-(5-(4-phenylpiperazine-1-carbonyl)−1H-benzo[d]imidazol-2-yl)phenoxy)acetamide] |
| 2720 ± 70 | COc1cc(-c2nc3cc(C(=O)N4CCN(c5ccccc5)CC4)ccc3[nH]2)ccc1OCC(=O)Nc1cccc(Cl)c1 [Compound 9j, N-(3-Chlorophenyl)−2-(2-methoxy-4-(5-(4-phenylpiperazine-1-carbonyl)−1H-benzo[d]imidazol-2-yl)phenoxy)acetamide] |
| 9240 ± 370 | COc1cc(-c2nc3cc(C(=O)N4CCN(c5ccccc5)CC4)ccc3[nH]2)ccc1OCC(=O)Nc1ccccc1Cl [Compound 9i, N-(2-Chlorophenyl)−2-(2-methoxy-4-(5-(4-phenylpiperazine-1-carbonyl)−1H-benzo[d]imidazol-2-yl)phenoxy)acetamide] |
| 11100 ± 1180 | COc1cc(-c2nc3cc(C(=O)N4CCN(c5ccccc5)CC4)ccc3[nH]2)ccc1OCC(=O)Nc1ccccc1 [Compound 9a, 2-(2-Methoxy-4-(5-(4-phenylpiperazine-1-carbonyl)−1H-benzo[d]imidazol-2-yl)phenoxy)-N-phenylacetamide] |
| 1260 ± 60 | COc1cc(-c2nc3cc(C(=O)N4CCN(c5ccccc5)CC4)ccc3[nH]2)ccc1OCC(=O)Nc1c(C)cccc1C [Compound 9e, N-(2,6-Dimethylphenyl)−2-(2-methoxy-4-(5-(4-phenylpiperazine-1-carbonyl)−1H-benzo[d]imidazol-2-yl)phenoxy)acetamide] |
| 820 ± 100 | COc1cc(-c2nc3cc(C(=O)N4CCN(c5ccccc5)CC4)ccc3[nH]2)ccc1OCC(=O)Nc1ccccc1C [Compound 9b, 2-(2-Methoxy-4-(5-(4-phenylpiperazine-1-carbonyl)−1H-benzo[d]imidazol-2-yl)phenoxy)-N-(o-tolyl)acetamide] |
| 1780 ± 240 | COc1cc(-c2nc3cc(C(=O)N4CCN(c5ccccc5)CC4)ccc3[nH]2)ccc1OCC(=O)Nc1ccc(Cl)cc1 [Compound 9k, N-(4-Chlorophenyl)−2-(2-methoxy-4-(5-(4-phenylpiperazine-1-carbonyl)−1H-benzo[d]imidazol-2-yl)phenoxy)acetamide] |
| 12200 ± 1090 | COc1cc(-c2nc3cc(C(=O)N4CCN(c5ccccc5)CC4)ccc3[nH]2)ccc1OCC(=O)Nc1ccc(C)cc1 [Compound 9d, 2-(2-Methoxy-4-(5-(4-phenylpiperazine-1-carbonyl)−1H-benzo[d]imidazol-2-yl)phenoxy)-N-(p-tolyl)acetamide] |

Same assay, conditions: ratio of IC50 values vs compound 9d

| fold more potent than 9d | Compound |
| --- | --- |
| seven-fold | COc1ccc(NC(=O)COc2ccc(-c3nc4cc(C(=O)N5CCN(c6ccccc6)CC5)ccc4[nH]3)cc2OC)cc1 [Compound 9 g, 2-(2-Methoxy-4-(5-(4-phenylpiperazine-1-carbonyl)−1H-benzo[d]imidazol-2-yl)phenoxy)-N-(4-methoxyphenyl)acetamide] |

Same assay, conditions: ratio of IC50 values, standard thiourea vs compound

| fold more potent than standard thiourea (X) | Compound |
| --- | --- |
| two-fold | COc1cc(-c2nc3cc(C(=O)N4CCN(c5ccccc5)CC4)ccc3[nH]2)ccc1OCC(=O)Nc1ccccc1 [Compound 9a, 2-(2-Methoxy-4-(5-(4-phenylpiperazine-1-carbonyl)−1H-benzo[d]imidazol-2-yl)phenoxy)-N-phenylacetamide] |

The molecules below were run against Jack bean urease (Canavalia ensiformis, UniProt P07374) (assay: Kinetic study, Lineweaver–Burk plot analysis). Settings: varying concentrations of inhibitor and urea; Vmax decreased, Km increased.
Chain of Jack bean urease (P07374 whole entry, looked up): as above
Type: biochemical

| mode of enzyme inhibition | Compound |
| --- | --- |
| mixed inhibitor | COc1cc(-c2nc3cc(C(=O)N4CCN(c5ccccc5)CC4)ccc3[nH]2)ccc1OCC(=O)Nc1cccc([N+](=O)[O-])c1 [Compound 9 L, 2-(2-Methoxy-4-(5-(4-phenylpiperazine-1-carbonyl)−1H-benzo[d]imidazol-2-yl)phenoxy)-N-(3-nitrophenyl)acetamide] |

— paper PMC12335596 (Scientific Reports, 2025)
